# Laboratory results as given in patent publication US12485121B2, “Antiviral agents for the treatment and prevention of HIV infection” (Pharmasyntez, Joint Stock Company, priority 2020, dated 2025).
# Tested on: HIV-1 subtype A strain 12RU 69831
# Experiment: Inhibition of HIV-1 reproduction / protection of infected MT-4 cells (living cell concentration, p24 production)
# Format: cell-based
# Details: Human immunodeficiency virus 1, MT4, MT-4 cells infected with HIV-1 at a constant virus dose of 300 CCID50; read-out: Activity against HIV-1 12RU 69831 strain (subtype A)
# Protocol: Evaluation of HIV reproduction inhibition/protection of human cells by anti-HIV products of the present invention was conducted by measuring change in living cells concentration in experimental wells with MT-4 cells infected with HIV-1, as well as by the production of viral protein p24 with adding different concentrations of compounds according to the present invention. Antiviral activity of products against HIV-1 subtype A strain 12RU 69831 was determined, when the cell culture was infected with a constant dose of virus, corresponding to 300 CCID50.
row,IC50,Compound
1,29.9 µM,"Cc1cc(C#N)cc(C)c1Oc1nc(Nc2ccc(C#N)cc2)nc2c1CCN(Cc1cccnc1)CC2 [BB0274015, 4-((2-((4-Cyanophenyl)amino)-7-(pyridine-3-ylmethyl)-6,7,8,9-tetrahydro-5H-pyrimido[4,5-d]azepine-4-yl)oxy)-3,5-dimethylbenzonitrile]"
2,342 µM,"Cc1cc(C#N)cc(C)c1Oc1nc(Nc2ccc(C#N)cc2)nc2c1CN(C(=O)[C@H](Cc1ccc(O)cc1)NC(=O)OC(C)(C)C)CC2 [BB0274124, (S)-Tert-butyl (1-(4-(4-cyano-2,6-dimethylphenoxy)-2-((4-cyanophenyl)amino)-7,8-dihydropyrido[4,3-d]pyrimidine-6(5H)-yl)-3-(4-hydroxyphenyl)-1-oxopropane-2-yl)carbamate]"
3,240 µM,"Cc1cc(C#N)cc(C)c1Oc1nc(Nc2ccc(C#N)cc2)nc2c1CN(C(=O)[C@H](CCCCNC(=O)OC(C)(C)C)NC(=O)OC(C)(C)C)CC2 [BB0274130, (S)-Di-tert-butyl (6-(4-(4-cyano-2,6-dimethylphenoxy)-2-((4-cyanophenyl)amino)-7,8-dihydropyrido[4,3-d]pyrimidine-6(5H)-yl)-6-oxohexane-1,5-diyl)dicarbamate]"
4,41.1 µM,"Cc1cc(C#N)cc(C)c1Oc1nc(Nc2ccc(C#N)cc2)nc2c1CCN(C(=O)[C@@H]1CCCN1C(=O)OC(C)(C)C)CC2 [BB0274065, (S)-Tert-butyl 2-(4-(4-cyano-2,6-dimethylphenoxy)-2-((cyanophenyl)amino)-6,7,8,9-tetrahydro-5H-pyrimido[4,5-d]azepine-7-carbonyl)pyrrolidine-1-carboxylate]"
5,27.8 µM,"Cc1cc(C#N)cc(C)c1Oc1nc(Nc2ccc(C#N)cc2)nc2c1CN(Cc1ccccc1O)CC2 [BB0274140, 4-((2-((4-Cyanophenyl)amino)-6-(2-hydroxybenzyl)-5,6,7,8-tetrahydropyrido[4,3-d]pyrimidine-4-yl)oxy)-3,5-dimethylbenzonitrile]"
6,113 µM,"Cc1cc(C#N)cc(C)c1Oc1nc(Nc2ccc(C#N)cc2)nc2c1CN(C(=O)[C@H](CC(C)C)NC(=O)OC(C)(C)C)CC2 [BB0274128, (S)-Tert-butyl (1-(4-(4-cyano-2,6-dimethylphenoxy)-2-((4-cyanophenyl)amino)-7,8-dihydropyrido[4,3-d]pyrimidine-6(5H)-yl)-4-methyl-1-oxopentane-2-yl)carbamate]"
7,0.00799 µM,"Cc1cc(C#N)cc(C)c1Oc1nc(Nc2ccc(C#N)cc2)nc2c1CN(Cc1ccncc1)CC2 [BB0274137, 4-((2-((4-Cyanophenyl)amino)-6-(pyridine-4-ylmethyl)-5,6,7,8-tetrahydropyrido[4,3-d]pyrimidine-4-yl)oxy)-3,5-dimethylbenzonitrile]"
8,359 µM,"Cc1cc(C#N)cc(C)c1Oc1nc(Nc2ccc(C#N)cc2)nc2c1CN(S(N)(=O)=O)CC2 [BB0274239, 4-(4-Cyano-2,6-dimethylphenoxy)-2-[(4-cyanophenyl)amino]-5H,6H,7H,8H-pyrido[4,3-d]pyrimidine-6-sulfonamide]"
9,74.3 µM,Cc1cccc(C)c1Oc1nc(Nc2ccc(C#N)cc2)nc2c1CCN(Cc1ccccc1)C2 [BB0273459]
10,33.8 µM,"Cc1cc(C#N)cc(C)c1Oc1nc(Nc2ccc(C#N)cc2)nc2c1CN(C(=O)c1cnccn1)CC2 [BB0274100, 4-((2-((4-Cyanophenyl)amino)-6-(pyrazine-2-carbonyl)-5,6,7,8-tetrahydropyrido[4,3-d]pyrimidine-4-yl)oxy)-3,5-dimethylbenzonitrile]"
11,664 µM,"Cc1cc(C#N)cc(C)c1Oc1nc(Nc2ccc(C#N)cc2)nc2c1CN(C(=O)C1CCCN1C(=O)OC(C)(C)C)CC2 (centres unmarked) [BB0274097, Tert-butyl 2-(4-(4-cyano-2,6-dimethylphenoxy)-2-((4-cyanophenyl)amino)-5,6,7,8-tetrahydropyrido[4,3-d]pyrimidine-6-carbonyl)pyrrolidine-1-carboxylate]"
12,0.909 µM,"CSCC[C@H](N)C(=O)N1CCc2nc(Nc3ccc(C#N)cc3)nc(Oc3c(C)cc(C#N)cc3C)c2C1 [BB0274132, 4-((2-((4-cyanophenyl)amino)-6-methionyl-5,6,7,8-tetrahydropyrido[4,3-d]pyrimidin-4-yl)oxy)-3,5-dimethylbenzonitrile]"
13,1.73 µM,"CCOC(=O)N1CCc2nc(Nc3ccc(C#N)cc3)nc(Oc3c(C)cc(C#N)cc3C)c2C1 [BB0273965, Ethyl 4-(4-cyano-2,6-dimethylphenoxy)-2-((4-cyanophenyl)amino)-7,8-dihydropyrido[4,3-d]pyrimidine-6(5H)-carboxylate]"
14,291 µM,"Cc1cc(/C=C/C#N)cc(C)c1Oc1nc(Nc2ccc(C#N)cc2)nc2c1CCN(C(=O)OC(C)(C)C)CC2 [BB0274009, Tert-butyl 2-((4-cyanophenyl)amino)-4-(4-(2-cyanovinyl)-2,6-dimethylphenoxy)-8,9-dihydro-5H-pyrimido[4,5-d]azepine-7(6H)-carboxylate]"
15,12.1 µM,"Cc1cc(C#N)cc(C)c1Oc1nc(Nc2ccc(C#N)cc2)nc2c1CN(C(=O)[C@H](N)C(C)C)CC2 [BB0274127, (R)-4-((6-(2-Amino-3-methylbutanoyl)-2-((4-cyanophenyl)amino)-5,6,7,8-tetrahydropyrido[4,3-d]pyrimidine-4-yl)oxy)-3,5-dimethylbenzonitrile]"
16,27.1 µM,"Cc1cc(C#N)cc(C)c1Oc1nc(Nc2ccc(C#N)cc2)nc2c1CCN(C(=O)c1ccncc1)CC2 [BB0274011, 4-((2-((4-Cyanophenyl)amino)-7-isonicotinoyl-6,7,8,9-tetrahydro-5H-pyrimido[4,5-d]azepine-4-yl)oxy)-3,5-dimethylbenzonitrile]"
17,10.5 µM,"Cc1cc(C#N)cc(C)c1Oc1nc(Nc2ccc(C#N)cc2)nc2c1CCN(C(=O)CCl)CC2 [BB0274133, 4-((7-(2-Chloroacetyl)-2-((4-cyanophenyl)amino)-6,7,8,9-tetrahydro-5H-pyrimido[4,5-d]azepine-4-yl)oxy)-3,5-dimethylbenzonitrile]"
18,1.04 µM,"Cc1cc(C#N)cc(C)c1Oc1nc(Nc2ccc(C#N)cc2)nc2c1CN(C(=O)[C@@H](N)CC(C)C)CC2 [BB0274129, (S)-4-((6-(2-Amino-4-methylpentanoyl)-2-((4-cyanophenyl)amino)-5,6,7,8-tetrahydropyrido[4,3-d]pyrimidine-4-yl)oxy)-3,5-dimethylbenzonitrile]"
19,37 µM,"Cc1cc(C#N)cc(C)c1Oc1nc(Nc2ccc(C#N)cc2)nc2c1CCN(C1CCN(C(=O)OC(C)(C)C)CC1)CC2 [BB0274027, Tert-butyl 4-(4-(4-cyano-2,6-dimethylphenoxy)-2-((4-cyanophenyl)amino)-8,9-dihydro-5H-pyrimido[4,5-d]azepine-7(6H)-yl)piperidine-1-carboxylate]"
20,346 µM,"Cc1cc(C=O)cc(C)c1Oc1nc(Nc2ccc(C#N)cc2)nc2c1CCN(C(=O)OC(C)(C)C)CC2 [BB0273943, Tert-butyl 2-((4-cyanophenyl)amino)-4-(4-formyl-2,6-dimethylphenyoxy)-8,9-dihydro-5H-pyrimido[4,5-d]azepine-7(6H)-carboxylate]"
21,4.07 µM,"Cc1cc(C#N)cc(C)c1Oc1nc(Nc2ccc(C#N)cc2)nc2c1CCN(C1CCOCC1)CC2 [BB0274072, 4-((2-((4-Cyanophenyl)amino)-7-(tetrahydro-2H-pyran-4-yl)-6,7,8,9-tetrahydro-5H-pyrimido[4,5-d]azepine-4-yl)oxy)-3,5-dimethylbenzonitrile]"
22,0.152 µM,"Cc1cc(C#N)cc(C)c1Oc1nc(Nc2ccc(C#N)cc2)nc2c1CN(C(=O)C1CNC1)CC2 [BB0274099, 4-((6-(Azetidine-3-carbonyl)-2-((4-cyanophenyl)amino)-5,6,7,8-tetrahydropyrido[4,3-d]pyrimidine-4-yl)oxy)-3,5-dimethylbenzonitrile]"
23,224 µM,"Cc1cc(C#N)cc(C)c1Oc1nc(Nc2ccc(C#N)cc2)nc2c1CCN(C)C2 [BB0273774, 4-((2-((4-Cyanophenyl)amino)-7-methyl-5,6,7,8-tetrahydropyrido[3,4-d]pyrimidine-4-yl)oxy)-3,5-dimethylbenzonitrile]"
24,0.127 µM,"Cc1cc(C#N)cc(C)c1Oc1nc(Nc2ccc(C#N)cc2)nc2c1CN(C(=O)CN1CC(O)C1)CC2 [BB0274052, 4-((2-((4-Cyanophenyl)amino)-6-(2-(3-hydroxyazetidine-1-yl)acetyl)-5,6,7,8-tetrahydropyrido[4,3-d]pyrimidine-4-yl)oxy)-3,5-dimethylbenzonitrile]"
25,1220 µM,Cc1cc(C2OCCCO2)cc(C)c1Oc1nc(Nc2ccc(C#N)cc2)nc2c1CCN(C(=O)OC(C)(C)C)CC2 [BB0273892]
26,18.7 µM,"Cc1cc(C#N)cc(C)c1Oc1nc(Nc2ccc(C#N)cc2)nc2c1CN(C(=O)C(N)Cc1cn[nH]c1)CC2 (centres unmarked) [BB0274121, 4-((6-(2-Amino-3-(1H-pyrazole-4-yl)propanoyl)-2-((4-cyanophenyl)amino)-5,6,7,8-tetrahydropyrido[4,3-d]pyrimidine-4-yl)oxy)-3,5-dimethylbenzonitrile]"
27,2.07 µM,"Cc1cc(C#N)cc(C)c1Oc1nc(Nc2ccc(C#N)cc2)nc2c1CN(C(=O)[C@H](N)CO)CC2 [BB0274123, (R)-4-((6-(2-Amino-3-hydroxypropanoyl)-2-((4-cyanophenyl)amino)-5,6,7,8-tetrahydropyrido[4,3-d]pyrimidine-4-yl)oxy)-3,5-dimethylbenzonitrile]"

row,Compound,IC50
1,"Cc1cc(C#N)cc(C)c1Oc1nc(Nc2ccc(C#N)cc2)nc2c1CCN(CC#N)CC2 [BB0274095, 4-((7-(cyanomethyl)-2-((4-cyanophenyl)amino)-6,7,8,9-tetrahydro-5H-pyrimido[4,5-d]azepine-4-yl)oxy)-3,5-dimethylbenzonitrile]",11.3 µM

# Same assay, conditions: MT-4 cells infected with HIV-1 at a constant virus dose of 300 CCID50; read-out: Activity against HIV-1 12RU 69831 strain (subtype A)
row,IC50,Compound
1,0.00583 µM,"Cc1cc(C#N)cc(C)c1Oc1nc(Nc2ccc(C#N)cc2)nc2c1CCNCC2 [BB0273976, 4-((2-((4-Cyanophenyl)amino)-6,7,8,9-tetrahydro-5H-pyrimido[4,5-d]azepine-4-yl)oxy)-3,5-dimethylbenzonitrile]"
